Data as given in ChEMBL document CHEMBL4742397, “Compositions and methods for regulating body weight and metabolic syndromes” (2018).
Activity calls are given as the source filed them. The rule behind the calls is not given here.

Legend:
3T3-L1 [1] = experiment: Inhibition of lipid accumulation in mouse 3T3-L1 cells at 5 to 20 uM incubated for 6 days by Oil Red O staining based spectrometric assay; type: functional, cell-based; settings: dose 5-20 µM, time 6.0 day
Mus musculus [2] = experiment: Anti-diabetic activity in high fat diet-fed C57BL/6J mouse model of obesity and diabetes assessed as reduction of white adipose tissue weight (epididymal adipose tissue ) at 20 mg/kg, ip dosed daily for 2 weeks; type: functional, organism-based
3T3-L1 [3] = experiment: Suppression of cholesterol levels in mouse 3T3-L1 cells; type: functional, cell-based
Mus musculus [4] = experiment: Anti-diabetic activity in high fat diet-fed C57BL/6J mouse model of obesity and diabetes assessed as improvement in blood lipid profile by measuring decrease in free cholesterol at 20 mg/kg, ip dosed daily for 2 weeks; type: functional, organism-based
Mus musculus [5] = experiment: Effect on fecal energy content in high fat diet-fed C57BL/6J mouse model of obesity and diabetes at 20 mg/kg, ip dosed daily for 8 days; type: functional, organism-based; settings: time 8.0 day
3T3-L1 [6] = experiment: Increase in 125 kDa inactive precursor form of SREBPl protein in mouse 3T3-L1 cells at 20 uM incubated for 6 days by Western blot analysis; type: functional, cell-based; settings: time 6.0 day
Mus musculus [7] = experiment: Anti-diabetic activity in high fat diet-fed C57BL/6J mouse model of obesity and diabetes assessed as improvement in blood lipid profile by measuring decrease in TG level at 20 mg/kg, ip dosed daily for 2 weeks; type: functional, organism-based
Mus musculus [8] = experiment: Anti-diabetic activity in high fat diet-fed C57BL/6J mouse model of obesity and diabetes assessed as reduction in insulin levels at 20 mg/kg, ip dosed daily for 2 weeks; type: functional, organism-based
Mus musculus [9] = experiment: Anti-diabetic activity in high fat diet-fed C57BL/6J mouse model of obesity and diabetes assessed as reduction in food intake at 20 mg/kg, ip dosed daily for 2 weeks; type: functional; parameters: scale not given: the % may be the effect or the level left
3T3-L1 [10] = experiment: Inhibition of CE accumulation in mouse 3T3-L1 cells; type: functional, cell-based
Mus musculus [11] = experiment: Anti-diabetic activity in high fat diet-fed C57BL/6J mouse model of obesity and diabetes assessed as reduction in body weight at 20 mg/kg, ip dosed daily for 8 days; type: functional, organism-based; settings: time 8.0 day
3T3-L1 [12] = experiment: Inhibition of LD accumulation mouse 3T3-L1 cells using deuterium labeled glucose-d7 by SRS microscopy; type: functional, cell-based
3T3-L1 [13] = experiment: Inhibition of cholesterol uptake related gene expression in mouse 3T3-L1 cells assessed as reduction in CD36 expression at 20 uM incubated for 6 days by real-time PCR analysis; type: functional, cell-based; settings: time 6.0 day
Mus musculus [14] = experiment: Anti-diabetic activity in high fat diet-fed C57BL/6J mouse model of obesity and diabetes assessed as reduction of white adipose tissue at 20 mg/kg, ip dosed daily for 2 weeks; type: functional, organism-based
Mus musculus [15] = experiment: Anti-diabetic activity in high fat diet-fed C57BL/6J mouse model of obesity and diabetes assessed as reduction in serum leptin level at 20 mg/kg, ip dosed daily for 2 weeks; type: functional, organism-based
3T3-L1 [16] = experiment: Inhibition of lipid synthesis related gene expression in mouse 3T3-L1 cells assessed as reduction in SCD1 expression at 20 uM incubated for 6 days by real-time PCR analysis; type: functional, cell-based; settings: time 6.0 day
3T3-L1 [17] = experiment: Inhibition of lipid synthesis related gene expression in mouse 3T3-L1 cells assessed as reduction in MGAT1 expression at 20 uM incubated for 6 days by real-time PCR analysis; type: functional, cell-based; settings: time 6.0 day
3T3-L1 [18] = experiment: Inhibition of lipid synthesis related gene expression in mouse 3T3-L1 cells assessed as reduction in DGAT2 expression at 20 uM incubated for 6 days by real-time PCR analysis; type: functional, cell-based; settings: time 6.0 day
3T3-L1 [19] = experiment: Effect on cytochrome B5 reductase 3 in mouse 3T3-L1 cells at 10 uM dosed during day 2 to 6 and followed by drug replacement every 48 hrs by LC-MS/MS analysis based proteomic analysis; type: functional; settings: time 4.0 day
Mus musculus [20] = experiment: Anti-diabetic activity in high fat diet-fed C57BL/6J mouse model of obesity and diabetes assessed as reduction in energy expenditure at 20 mg/kg, ip dosed daily for 2 weeks; type: functional, organism-based
Mus musculus [21] = experiment: Anti-diabetic activity in high fat diet-fed C57BL/6J mouse model of obesity and diabetes assessed as improvement in HOMA-IR levels at 20 mg/kg, ip dosed daily for 2 weeks; type: functional, organism-based
Mus musculus [22] = experiment: Anti-diabetic activity in high fat diet-fed C57BL/6J mouse model of obesity and diabetes assessed as reduction in respiratory exchange ratio at 20 mg/kg, ip dosed daily for 2 weeks; type: functional, organism-based
[23] = target: T1, Sterol O-acyltransferase 1 (Mus musculus) (UniProt Q61263); experiment: Inhibition of ACAT in mouse 3T3-L1 cells assessed as reduction in accumulation of fluorescence-labeled CE by 25-NBD cholesterol based assay; type: cell-based
T1 sequence (whole entry): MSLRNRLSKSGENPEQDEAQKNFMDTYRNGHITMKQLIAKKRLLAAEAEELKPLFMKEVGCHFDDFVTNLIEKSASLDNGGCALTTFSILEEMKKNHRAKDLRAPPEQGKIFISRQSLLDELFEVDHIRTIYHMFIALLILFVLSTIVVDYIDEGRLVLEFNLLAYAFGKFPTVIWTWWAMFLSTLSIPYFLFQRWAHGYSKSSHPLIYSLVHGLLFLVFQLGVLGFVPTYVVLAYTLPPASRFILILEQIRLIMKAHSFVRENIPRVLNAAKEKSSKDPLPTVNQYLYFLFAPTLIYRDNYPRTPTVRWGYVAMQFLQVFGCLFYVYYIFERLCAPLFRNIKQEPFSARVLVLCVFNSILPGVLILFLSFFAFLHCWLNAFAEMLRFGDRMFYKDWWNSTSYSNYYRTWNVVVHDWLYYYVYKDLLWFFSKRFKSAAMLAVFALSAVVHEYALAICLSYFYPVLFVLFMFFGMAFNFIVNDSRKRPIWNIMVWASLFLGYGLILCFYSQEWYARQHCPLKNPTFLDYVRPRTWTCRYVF

3T3-L1 [24] = experiment: Inhibition of lipid accumulation in mouse 3T3-L1 cells at 1 to 20 uM incubated for 6 days by Oil Red O staining based spectrometric assay relative to control; type: functional; settings: dose 1-20 µM, time 6 day
3T3-L1 [25] = experiment: Inhibition of lipid synthesis related gene expression in mouse 3T3-L1 cells assessed as reduction in SREBPlc expression at 20 uM incubated for 6 days by real-time PCR analysis; type: functional, cell-based; settings: time 6.0 day
3T3-L1 [26] = experiment: Inhibition of lipid synthesis related gene expression in mouse 3T3-L1 cells assessed as reduction in PPARgamma expression at 20 uM incubated for 6 days by real-time PCR analysis; type: functional, cell-based; settings: time 6.0 day
3T3-L1 [27] = experiment: Inhibition of lipid accumulation in mouse 3T3-L1 cells at 10 to 20 uM incubated for 6 days by CARS microscopy; type: functional, cell-based; settings: dose 10-20 µM, time 6.0 day
Mus musculus [28] = experiment: Anti-diabetic activity in high fat diet-fed C57BL/6J mouse model of obesity and diabetes assessed as reduction in blood glucose at 20 mg/kg, ip dosed daily for 2 weeks; type: functional, organism-based
3T3-L1 [29] = experiment: Inhibition of lipid accumulation in mouse 3T3-L1 cells at 1 to 20 uM incubated for 6 days by Oil Red O staining based spectrometric assay; type: functional, cell-based; settings: dose 1-20 µM, time 6.0 day
Mus musculus [30] = experiment: Anti-diabetic activity in high fat diet-fed C57BL/6J mouse model of obesity and diabetes assessed as reduction of white adipose tissue weight (retroperitoneal adipose tissue ) at 20 mg/kg, ip dosed daily for 2 weeks; type: functional, organism-based
3T3-L1 [31] = experiment: Effect on superoxide dismutase 1 in mouse 3T3-L1 cells at 10 uM dosed during day 2 to 6 and followed by drug replacement every 48 hrs by LC-MS/MS analysis based proteomic analysis; type: functional; settings: time 4.0 day
3T3-L1 [32] = experiment: Inhibition of lipid synthesis related gene expression in mouse 3T3-L1 cells assessed as reduction in FAS expression at 20 uM incubated for 6 days by real-time PCR analysis; type: functional, cell-based; settings: time 6.0 day
[33] = Hepato-toxicity in high fat diet-fed C57BL/6J mouse model of obesity and diabetes assessed as effect on ALT activity at 20 mg/kg, ip dosed daily for 2 weeks; type: organism-based; settings: in vivo, 336 h
Mus musculus [34] = experiment: Anti-diabetic activity in high fat diet-fed C57BL/6J mouse model of obesity and diabetes assessed as improvement in glucose tolerance at 20 mg/kg, ip dosed daily for 2 weeks; type: functional, organism-based
Mus musculus [35] = experiment: Anti-diabetic activity in high fat diet-fed C57BL/6J mouse model of obesity and diabetes assessed as improvement in blood lipid profile by measuring decrease in CE level at 20 mg/kg, ip dosed daily for 2 weeks; type: functional, organism-based
Mus musculus [36] = experiment: Anti-diabetic activity in high fat diet-fed C57BL/6J mouse model of obesity and diabetes assessed as reduction of whole body fat mass at 20 mg/kg, ip dosed daily for 2 weeks; type: functional, organism-based
3T3-L1 [37] = experiment: Inhibition of cholesterol uptake related gene expression in mouse 3T3-L1 cells assessed as reduction in SR-B1 expression at 20 uM incubated for 6 days by real-time PCR analysis; type: functional, cell-based; settings: time 6.0 day
Mus musculus [38] = experiment: Anti-diabetic activity in high fat diet-fed C57BL/6J mouse model of obesity and diabetes assessed as reduction in food intake at 20 mg/kg, ip dosed daily for 8 days; type: functional, organism-based; settings: time 8.0 day
Mus musculus [39] = experiment: Anti-diabetic activity in high fat diet-fed C57BL/6J mouse model of obesity and diabetes assessed as reduction in total body weight gain at 20 mg/kg, ip dosed daily for 2 weeks; type: functional; parameters: scale not given: the % may be the effect or the level left

With `CCCCCCCCCCC(C)(C)C(=O)Nc1c(OC)cc(OC)cc1OC` the inhibition (3T3-L1 [1]) was “Active”.
In the case of `CC(C)c1cc(C(C)C)c(CC(=O)NS(=O)(=O)Oc2c(C(C)C)cccc2C(C)C)c(C(C)C)c1` [AVASIMIBE], the Activity (Mus musculus [2]) is reported as “Active”, the inhibition (3T3-L1 [3]) is reported as “Active” and the Activity (Mus musculus [4]) is reported as “Active”. The Activity (Mus musculus [5]) was “inactive”, the Activity (3T3-L1 [6]) was “Active” and the Activity (Mus musculus [7]) was “Active”. The Activity (Mus musculus [8]) was “Active”, the Activity (Mus musculus [9]) was 50% and the inhibition (3T3-L1 [10]) was “Active”. For the same compound, the Activity (Mus musculus [11]) was “Active”, the inhibition (3T3-L1 [12]) was “Active” and the inhibition (3T3-L1 [13]) was “Active”. For the same compound, the Activity (Mus musculus [14]) was “Active”, the Activity (Mus musculus [15]) was “Active” and the inhibition (3T3-L1 [16]) was “Active”. The inhibition (3T3-L1 [17]) was “Active”, the inhibition (3T3-L1 [18]) was “Active” and the Activity (3T3-L1 [19]) was “inactive”. For the same compound, the Activity (Mus musculus [20]) was “Active”, the Activity (Mus musculus [21]) was “Active” and the Activity (Mus musculus [22]) was “Active”. The inhibition [23] was “Active”, the “inhibition (INH)” value (3T3-L1 [24]) was “<=60%” and the inhibition (3T3-L1 [25]) was “Active”. The inhibition (3T3-L1 [26]) was “Active”, the inhibition (3T3-L1 [27]) was “Active” and the Activity (Mus musculus [28]) was “Active”. For the same compound, the inhibition (3T3-L1 [29]) was “Dose-dependent effect”, the Activity (Mus musculus [30]) was “Active” and the Activity (3T3-L1 [31]) was “inactive”. The inhibition (3T3-L1 [32]) was “Active”, the Activity [33] was “Non-Toxic” and the Activity (Mus musculus [34]) was “Active”. For the same compound, the Activity (Mus musculus [35]) was “Active”, the Activity (Mus musculus [36]) was “Active” and the inhibition (3T3-L1 [37]) was “Active”. The Activity (Mus musculus [38]) was “Active” and the Activity (Mus musculus [39]) was 25%.
